Test results from patent US4568689A, “Pharmaceutical preparation for the treatment of hypertensive disease and myocardial infarction” (priority 1983, dated 1986).
“Also recorded” adds a separate entry of the source.

Experiments:
[1] = tested on: neoepinephrine model of infarction (focal necrosis) of myocardium in rats; test: survival of rats with the neoepinephrine model of infarction; format: in vivo, rats of the Wistar line; conditions: 25 mg/kg subcutaneously, 7 days; for Percentage of survival: after 19 days; for Number of survived animals after 19 days: groups initially 12 animals
Protocol: The study of the effect produced by the preparation according to the present invention on survival of animals with a neoepinephrine model of infarction was effected in comparison with the prior art preparations--obzidan and finoptin.
The formation of a neoepinephrine model of infarction (focal necrosis) of myocardium in rats was effected by way of an every-day subcutaneous administration of a 0.1% solution of neoepinephrine in the dose of 3 mg/kg for 7 days to rats of the Wistar line with a mass of 160-200 g. The test preparations were subcutaneously administered to the rats in the form of a 1.25% aqueous solution in the dose of 25 mg/kg 0.5 hour after injection of neoepinephrine also for 7 days.

[2] = tested on: experimental necrosis of myocardium caused by introduction of adrenaline; test: histological analysis of experimental necrosis of myocardium caused by adrenaline; format: in vivo, rats of the Wistar line; conditions: for changes in cardiomyocytes / changes in interstitial tissue / changes in vessels: 25 mg/kg
Protocol: A comparative study of the effects produced by the preparation according to the present invention and finoptin on an experimental necrosis of myocardium caused by introduction of adrenaline.
The experiments were carried out on rats of the Wistar line of gregarious keeping, both sexes, with a mass of 170 to 225 g. Each preparation was studied on a separate group of animals: (group of adrenaline-control, group of finoptin, group of the preparation according to the present invention). 72 rats were used in the experiments altogether. Injuries of myocardium were caused by way of a single-time subcutaneous administration of a 0.1% solution of adrenaline hydrochloride in the dose of 3 mg per kg of the rat's bodyweight. […] The preparation of this invention was administered subcutaneously, finoptin-per os. On the first day of the experiment the preparations were administered 30 minutes after injection of adrenaline hydrochloride. The experiment lasted for 19 days. Slaughters were effected on the 4th, 8th, 12th and 19th day of the experiment. The animals were decapitated. The heart was fixed in a 10% solution of neutral formalin and sealed in paraffin. Serial sections with the thickness of 5-6μ were coloured by Ehrlich hematoxylin-eosin. The state of vessels of myocardium, cardiomyocytes and interstitial tissue were evaluated by histological analysis.

[3] = tested on: arterial pressure of spontaneously hypertensive rats; test: effect of the oral form on arterial pressure, spontaneously hypertensive rats; format: in vivo; conditions: 10 mg/kg
[4] = background; cited from earlier work
[5] = tested on: arterial pressure of rats with spontaneous hypertension; test: hypotensive effect, intraperitoneal, spontaneously hypertensive rats; format: in vivo
Protocol: The study of the hypotensive effect was carried out in experiments on spontaneously hypertensive male rats of the Akamoto-Aoki line aged 20-25 weeks. The prior art preparation-nifedipine was used for the purpose of comparison. The measurement of the arterial pressure was effected on the tail vein of the rats by the indirect method. The animals were divided into groups (10 in each) and trained for two weeks with the view to ensure their adaptation to the unit for the measurement of the arterial pressure. The level of the arterial pressure prior to administration of the test preparations was measured three times: two days, one day and directly prior to administration of the test preparations. The preparation was administered in the form of a 2.5% aqueous solution, nifedipine--in the form of a 2.5% suspension in Twin-80 intraperitoneally. […]

[6] = background; cited from earlier work; remark: listed apart in the source
[7] = 4th day, grade/number of animals (6)
[8] = 8th day, grade/number of animals (6)
[9] = 12th day, grade/number of animals (6)
[10] = 19th day, grade/number of animals (5)
[11] = 1 mg/kg intraperitoneally, 30 minutes
[12] = 1 mg/kg intraperitoneally, 1 hour
[13] = 1 mg/kg intraperitoneally, 2 hours
[14] = 1 mg/kg intraperitoneally, 4 hours
[15] = 1 mg/kg intraperitoneally, 24 hours

## COc1ccc(CCN(C)CCCC(C#N)(c2ccc(OC)c(OC)c2)C(C)C)cc1OC (stereo not drawn) [Finoptin, reference compound]
[1]
  Percentage of survival: 50%
  Number of survived animals after 19 days: 6
[2]; 4th day
  changes in cardiomyocytes: Necrosis and eosinophilia, as well as contracture alterations of muscular cells are observed in a half of the studied animals
  changes in interstitial tissue: edema is decreased, in a half of the animals a diffusive round-cell infiltration is observed, the formation of granulomae is similar to that of the animals of the control group
  changes in vessels: injuries of the vascular system are less clearly pronounced as compared to adrenaline; non-uniform distribution of endothelium and infiltration of adventita of arteries with lymphoid cells are insignificant
[2]; [7]
  necrobiotic regions in the wall: 0/6
  necrosis of more than 5 cells: 0/6
  wall necrosis (vessels): 0/6
[2]; 8th day
  changes in cardiomyocytes: granular-lumpy decomposition, eosinophilia and contructure type pathology are more pronounced than in the group of animals administered with the preparation according to the present invention, but less pronounced as compared to the control group (adrenaline)
  changes in interstitial tissue: a more intensive growth of the scarring tissue is observed as compared to the group of animals administered with the preparation according to the present invention and an insignificant decrease as compared to the control group (adrenaline)
[2]; [8]
  diffusive round-cell infiltration: 0/6
  edema (interstitial tissue): 0/6
  necrobiotic regions in the wall: 0/6
  necrosis of more than 5 cells: 0/6
  nuclei (pyknosis): 0/6
  plethora of the vessels: 0/6
  wall necrosis (vessels): 0/6
[2]; 12th day
  changes in cardiomyocytes: Eosinophilia is retained and the contructure type changes are more clearly pronounced than in the group administered with the preparation according to the present invention
  changes in interstitial tissue: an intensive formation of the scarring tissue occurs more noticeably than in the group of animals administered with the preparation according to the present invention
  changes in vessels: certain changes are observed on the part of endothelial cells (swelling)
[2]; [9]
  Nuclei (pykhnosis): 0/6
  diffusive round-cell infiltration: 0/6
  edema (interstitial tissue): 0/6
  infiltration of the adventitia with lymphoid cells: 0/5
  necrobiotic regions with changes in the vessel wall: 0/6
  necrosis of more than 5 cells: 0/6
  plethora of the vessels: 0/6
  wall necrosis (vessels): 0/6
[2]; 19th day
  changes in cardiomyocytes: By the 19th day these changes are getting less noticeable; also recorded: In half of the animals a moderately pronounced granular-lumpy decomposition is retained along with eosinophilia, cell necroses and contructure type changes
  changes in vessels: no changes are detected on the part of the coronary vessels
[2]; [10]
  infiltration of the adventitia with lymphoid cells: 0/5
  necrobiotic regions with changes in the vessel wall: 0/5
  necrosis of more than 5 cells: 0/5
  nuclei (pyknosis): 0/5
  plethora of the vessels: 0/5

## COC(=O)C1=C(C)NC(C)=C(C(=O)OC)C1c1ccccc1[N+](=O)[O-] [Nifedipine, reference compound]
[3]; 30 minutes
  Variation of arterial pressure, diastolic: -14 % of the initial
  Variation of arterial pressure, systolic: -10 % of the initial
[3]; 1 hour
  Variation of arterial pressure, diastolic: -18 % of the initial
  Variation of arterial pressure, systolic: -14 % of the initial
[3]; 2 hours
  Variation of arterial pressure, diastolic: -16 % of the initial
  Variation of arterial pressure, systolic: -10 % of the initial
[3]; 4 hours
  Variation of arterial pressure, diastolic: -20 % of the initial
  Variation of arterial pressure, systolic: -18 % of the initial
[3]; 24 hours
  Variation of arterial pressure, diastolic: 0 % of the initial
  Variation of arterial pressure, systolic: 0 % of the initial
[4]
  duration of effect: ≤ 8 h
[5]; [11]
  Variation of arterial pressure, diastolic: -8 % of the initial
  Variation of arterial pressure, systolic: -4 % of the initial
  lowering of diastolic pressure: 7.6%
  lowering of systolic pressure: 4.3%
[5]; [12]
  Variation of arterial pressure, diastolic: -14 % of the initial
  Variation of arterial pressure, systolic: -11 % of the initial
[5]; [13]
  Variation of arterial pressure, diastolic: -21 % of the initial
  Variation of arterial pressure, systolic: -8 % of the initial
[5]; [14]
  Variation of arterial pressure, diastolic: -31 % of the initial
  Variation of arterial pressure, systolic: -11 % of the initial
[5]; [15]
  Variation of arterial pressure, diastolic: 0 % of the initial
  Variation of arterial pressure, systolic: 0 % of the initial
[5]; 8 hours
  effect upon expiration of 8 hours: substantially discontinued

## CC(C)NCC(O)COc1cccc2ccccc12 (stereo not drawn) [Obzidan]
[1]
  Percentage of survival: 50%
  Number of survived animals after 19 days: 6

## CC(C)NCC(O)COc1cccc2ccccc12 (stereo not drawn) [inderal]
[6]
  inotropic effect: negative inotropic effect

## C=CCOc1ccccc1OCC(O)CNC(C)C (stereo not drawn) [oxyprenolol]
[6]
  inotropic effect: negative inotropic effect
